According to patent US10696707B2, “Polyene macrolide derivative” (Shionogi & Co., Ltd., priority 2014, dated 2020):

Experiments:
[1] = system: red blood cells (5% RBC suspension); test: Test Example 2-1: in vitro hemolytic activity test (upper limit 50, 80, 100 or 200 μmol/L); assay type: cell-based; conditions: hemolysis method 200 (upper concentration 200 μmol/L); 5% RBC suspension, 37° C., one hour; read-out: hemolysis IC50
Outline: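 A 5% suspension of washed red cells in Earle's medium was exposed to doubling dilutions of compound from DMSO, with maxima of 50, 80, 100 or 200 μmol/L final, for 1 h at 37 °C, 5% CO2. Supernatant absorbance at 540 nm was normalised to water-lysed cells. IC50 is the concentration giving 50% hemolysis; ">" values exceed the top concentration.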

[2] = system: Kim1, Timp1, and Lcn2; test: Test Example 4: nephrotoxicity, kidney marker gene expression by quantitative RT-PCR after intravenous administration; assay type: in vivo; conditions: mice, nephrotoxicity positive when ΔΔCt of two-third of target genes (Kim1, Timp1, Lcn2) >3
Experimental: The expression level of marker genes for nephrotoxicity was determined by quantitative RT-PCR to evaluate nephrotoxicity of the compound of the present invention. The compound of the present invention or vehicle was intravenously administered to mice and their kidneys were isolated. After removal of the kidney capsule, all of the kidneys were sliced into two equal halves, and stored at −80° C. in RNAlater® (Ambion) until use. Samples were disrupted and homogenized in QIAzol Lysis Reagent with TissueLyser (Qiagen), and total RNA was extracted using an RNeasy® Mini kit (Qiagen). Total RNA concentrations were determined to read OD260 by absorptiometer.
The level of expression of the following target genes was determined using one-step quantitative real-time PCR: Kim1, Timp1, and Lcn2. Total RNA (80 ng/2 μL) was used as the template, and TaqMan Gene Expression Assays (Applied Biosystems, for Haver1 (Kim1), assay ID: Mm00506686_m1; Timp1, Mm01341361_m1; Lcn2, Mm01324470_m1) or TaqMan Endogenous Controls (Gapdh, predesigned assay reagent supplied by ABI, Applied Biosystems) were employed as gene-specific probe and primer sets. Quantitative RT-PCR was performed using a QuantiTect™ Probe RT-PCR kit (Qiagen), and transcript levels were quantitated with an Applied Biosystems 7900HT Fast Real Time PCR System (Applied Biosystems). Reverse transcription and amplification conditions were set as follows: 50° C. for 30 min, 95° C. for 15 min, followed by 40 cycles at 95° C. for 15 s and 60° C. for 1 min. The resulting cycle threshold (Ct) value was processed based on the comparative Ct method (ΔΔCt Method), where Gapdh was used as an endogenous reference gene to normalize the expression level of target genes.
The ΔCt was calculated as follows: Ct, Gapdh−Ct, target gene.
The ΔΔCt was calculated as follows: ΔCt, treated sample−ΔCt, average of vehicle control sample.
Higher ΔΔCt values indicate higher expression rates of the target gene and therefore high risk for nephrotoxicity.

`C[C@@H]1[C@H](O)[C@@H](C)/C=C/C=C/C=C/C=C/C=C/C=C/C=C/[C@H](O[C@@H]2O[C@H](C)[C@@H](O)[C@H](N)[C@@H]2O)C[C@@H]2O[C@](O)(C[C@@H](O)C[C@@H](O)[C@H](O)CC[C@@H](O)C[C@@H](O)CC(=O)O[C@H]1C)C[C@H](O)[C@H]2NC(=O)NC1(C#N)CC1` [I-105] was tested, and the IC50 [1] was greater than 200 µM and the “nephrotoxicity MTD” value [2] was greater than 24 mg/kg.
